Measurements from patent US11453697B1, “Cyclic di-nucleotide compounds as sting agonists” (Merck Sharp & Dohme Corp., priority 2015, dated 2022).

Tested on: IFN-β secretion in THP1 cells
Test: IFN-β secretion in THP1 cell culture (5 h)
Type: cell-based, human
Details: not given
Experimental: The ability of compounds to stimulate the secretion of interferon-beta from THP1 cells was measured using a human IFN-β AlphaLISA kit (Perkin Elmer, Cat. No. AL265F). The basic protocol is as follows:
The cell viability and count was ascertained using a Beckman Coulter V-Cell XR cell counter. The cells suspension was centrifuged at 200×g for 5 min at RT. […] Subsequent liquid transfers were performed using either a Matrix electronic multichannel pipette or an Agilent Bravo Automated Liquid Handling Platform.
The assay was started by dispensing 40 μL of the previously prepared cell suspension into the wells of the plate containing compounds. After 5 h incubation at 37° C., 5% CO2 in a humidified atmosphere, the plate of cells and compounds was centrifuged at 200×g for 5 min at RT. […] To these supernatant-containing wells was added 10 μL of 5× Anti-Analyte Acceptor beads (50 μg/mL of AlphaLISA HiBlock Buffer) and incubated for 30 min at RT while shaking on an orbital plate shaker. To each well was added 10 μL of 5× Biotinylated Antibody Anti-analyte (5 nM in AlphaLISA HiBlock Buffer) and incubated on an orbital plate shaker for 60 min at RT or overnight at 4° C. To each well was added 25 μL of 2× SA-Donor beads (80 μg/mL in AlphaLISA HiBlock Buffer) and incubated for 30-45 min at RT in the dark while shaking on an orbital plate shaker. The plate was then read on a Perkin Elmer Envision (λex=680 nm, λem=[…]). The percent effect of the AlphaLISA signal at each compound concentration was calculated based on 30 uM cGAMP positive controls and 0.3% DMSO negative controls. The plot of percent effect versus the log of compound concentration was fit with a 4-parameter concentration response equation to calculate EC50 values.
Compounds of the disclosure were evaluated for IFN-β secretion in THP1 cell culture as described above.

Structure (SMILES)	% Effect at 30 μM relative to 2′3′-cGAMP
Nc1nc2c(ncn2[C@@H]2O[C@@H]3COP(=O)(S)O[C@H]4[C@H](F)[C@H](n5cnc6c(N)ncnc65)O[C@@H]4COP(=O)(S)O[C@@H]2[C@H]3F)c(=O)[nH]1 (single isomer, unassigned) [Example 145]	141%
Nc1nc2c(ncn2[C@@H]2O[C@@H]3COP(=O)(O)OC4C(F)[C@H](n5cnc6c(N)ncnc65)O[C@@H]4COP(=O)(O)OC2C3F)c(=O)[nH]1 (stereo in doubt) [Example 23, 2-amino-9-[(5R,7R,8S,12aR,14R,15R,15aR,16R)-14-(6-amino-9H-purin-9-yl)-15,16-difluoro-2,10-dihydroxy-2,10-dioxidooctahydro-12H-5,8-methanofuro[3,2-l][1,3,6,9,11,2,10]pentaoxadiphosphacyclotetradecin-7-yl]-1,9-dihydro-6H-purin-6-one]	125%

Same assay, conditions: IFN-β secretion in THP1 cell culture, 5 h; compound at 30 μM; percent activation relative to 2′3′-cGAMP

Structure (SMILES)	% Effect at 30 μM relative to 2′3′-cGAMP
Nc1nc2c(ncn2[C@@H]2O[C@@H]3COP(=O)(S)O[C@H]4[C@H](F)[C@H](n5cnc6c(N)ncnc65)O[C@@H]4COP(=O)(S)O[C@@H]2[C@H]3F)c(=O)[nH]1 (single isomer, unassigned) [Example 146]	59%
Nc1nc2c(ncn2[C@@H]2O[C@@H]3CO[P@@](=O)(S)O[C@H]4[C@H](F)[C@H](n5cnc6c(N)ncnc65)O[C@@H]4CO[P@@](=O)(S)O[C@@H]2[C@H]3F)c(=O)[nH]1 (single isomer, unassigned) [Example 144]	114%
Nc1nc2c(ncn2[C@@H]2O[C@@H]3COP(O)(=S)O[C@H]4[C@H](F)[C@H](n5cnc6c(N)ncnc65)O[C@@H]4COP(O)(=S)O[C@@H]2[C@@H]3F)c(=O)[nH]1 (single isomer, unassigned) [Example 246]	217%
Nc1nc2c(nnn2[C@@H]2O[C@@H]3COP(=O)(S)O[C@H]4[C@H](F)[C@H](n5nnc6c(=O)[nH]cnc65)O[C@@H]4COP(=O)(S)O[C@@H]2[C@@H]3F)c(=O)[nH]1 (single isomer, unassigned) [Example 344]	337%
Nc1nc2c(nnn2[C@@H]2O[C@@H]3COP(=O)(S)O[C@H]4[C@H](F)[C@H](n5nnc6c(=O)[nH]cnc65)O[C@@H]4COP(=O)(S)O[C@@H]2C3)c(=O)[nH]1 (single isomer, unassigned) [Example 341]	7%
Nc1nc2c(ncn2[C@@H]2O[C@@H]3COP(=O)(S)OC4C(O)[C@H](n5cnc6c(N)ncnc65)O[C@@H]4COP(=O)(S)OC2C3)c(=O)[nH]1 (single isomer, unassigned) [Example 88]	54%
Nc1nc2c(nnn2[C@@H]2O[C@@H]3COP(=O)(S)O[C@H]4[C@H](F)[C@H](n5cnc6c(=O)[nH]cnc65)O[C@@H]4COP(=O)(S)O[C@@H]2[C@@H]3F)c(=O)[nH]1 (single isomer, unassigned) [Example 342]	23%
Nc1nc2c(ncn2[C@@H]2O[C@@H]3COP(=O)(S)O[C@H]4[C@@H](O)[C@H](n5ccc6c(N)ncnc65)O[C@@H]4COP(=O)(S)O[C@@H]2C3)c(=O)[nH]1 (stereo partly drawn) [Example 79, 2-amino-9-[(5S,7R,8R,12aR,14R,15R,15aS)-14-(4-amino-7H-pyrrolo[2,3-d]pyrimidin-7-yl)-15-hydroxy-2,10-dioxido-2,10-disulfanyloctahydro-12H-5,8-methanofuro[3,2-l][1,3,6,9,11,2,10]pentaoxadiphosphacyclotetradecin-7-yl]-1,9-dihydro-6H-purin-6-one]	145%
Nc1nc2c(ncn2[C@@H]2O[C@@H]3COP(=O)(S)OC4[C@@H](COP(=O)(S)O[C@H]2C3O)O[C@@H](n2cnc3c(N)ncnc32)[C@H]4F)c(=O)[nH]1 (single isomer, unassigned) [Example 82]	111%
